Laboratory results taken from patent US20210391038A1, “SPECIFICALLY-SHAPED CRYSTAL OF COMPOUND AND METHOD FOR PRODUCING SAME” (TOWA PHARMACEUTICAL CO., LTD., priority 2018, published 2021).
Read-outs that look alike come from different tables or passages of the source.

Assays:
Format in all cases: physicochemical
[1] = Sphericity from SEM images (ImageJ); design: key: 1 = true sphere; closer to 1 = more spherical; mean of ≥5 particles; conditions: trihydrate; for sphericity of the spherulite: SEM image analysis, mean of particles
[2] = Particle strength
Text: Furthermore, a polycrystal with a high particle density also has a high particle strength. When a polycrystal, particularly a spherulite, is used as a raw material for production of drugs, a problem occurs in which wear in a formulation step leads to deterioration of yield or quality or both, and a polycrystal with a high particle strength has an advantage in this regard. When a specifically-shaped crystal obtained by the present invention is a polycrystal, the particle strength is preferably 1.0 MPa or more, more preferably 1.5 MPa or more, still more preferably 2.0 MPa, yet more preferably 2.5 MPa or more, and particularly preferably 3.0 MPa or more. The particle strength is calculated by measuring the force at which a particle breaks when load is applied to one particle and the particle size. Specifically, the particle strength is calculated by the following formula in accordance with JIS R 1639-5. Examples of a measuring device include a particle hardness measuring device NEW GRANO manufactured by OKADA SEIKO CO., LTD. and a micro compression testing machine MCT manufactured by Shimadzu Corporation. […]
The particle strength of the spherulite of esomeprazole magnesium trihydrate obtained in Example 2, the spherulite of esomeprazole magnesium trihydrate obtained in Example 5, and the spherulite of esomeprazole magnesium trihydrate obtained in Example 6 was measured.

[3] = Particle size distribution (d50, sharpness index); design: key to sharpness index of the crystal thus obtained / sharpness index of the fine powders: calculated by formula from d10, d50, d90; 1.0 = most uniform particle size; conditions: for d50: samples of dissolution test (Table 4)
Text: d10 in the present description is a value obtained from a particle size distribution analyzer, and represents a particle size of a particle corresponding to 10% of accumulation from the smaller particle side in the particle size distribution based on the volume.
d50 in the present description is a value obtained from a particle size distribution analyzer, and represents a particle size of a particle corresponding to 50% of accumulation from the smaller particle side in the particle size distribution based on the volume.
“Sharpness index” in the present description is an index representing the uniformity of a particle size of a particle in a powder, and a sharpness index of 1.0 represents a powder having the most uniform particle size. The closer the sharpness index is to 1.0, the more the particle size of the powder is uniform. Specifically, the sharpness index represents a value calculated using the following formula from the values of d10, d50, and d90 measured by a particle size distribution analyzer:
Images for measuring the number of particles were obtained by a scanner GT-X830 manufactured by SEIKO EPSON CORPORATION. The powder X-ray diffraction (XRD) was measured using a desktop X-ray diffraction device MiniFlex300 manufactured by Rigaku Corporation. […] The particle strength was measured using a particle hardness measuring device NEW GRANO manufactured by OKADA SEIKO CO., LTD. […] The purity of a compound was measured by a high performance liquid chromatograph (LC-20A) manufactured by Shimadzu Corporation.

[4] = Specific surface area (BET fluid process); conditions: nitrogen, trihydrate
Procedure: The particle size distribution was measured in a dry manner using a spray particle size distribution analyzer AEROTRAC LDSA-SPR3500A manufactured by Microtrac Inc. The particle size distribution in Examples 2 and 7 was measured in a dry manner using a laser diffraction particle size distribution measurement MASTERSIZER 3000 manufactured by Malvern Panalytical Ltd. SEM images were measured using a scanning electron microscope JSM-IT100 manufactured by JEOL Ltd. Light microscope images were measured using an upright microscope BX53M manufactured by Olympus Corporation and a microscope digital camera DP74 manufactured by Olympus Corporation. […] The powder X-ray diffraction (XRD) was measured using a desktop X-ray diffraction device MiniFlex300 manufactured by Rigaku Corporation. The specific surface area was measured by the BET fluid process (gas used: pure nitrogen) using a fully automatic specific surface area measuring device Macsorb HM-1208 manufactured by Mountech Co., Ltd. The moisture content was measured using a trace moisture measuring device AQ-2200 manufactured by […] SANGYO Co., Ltd. The dissolution profile was measured using μDISS Profiler manufactured by Pion Inc. Centrifugal classification was performed using a high-efficiency precision forced air classifier Lab Calssiel N-01 manufactured by SEISHIN […] […]

[5] = Measurement of dissolution profile (μDISS Profiler); conditions: 30 mg in 10 mL phosphate buffer pH 6.8, 37° C., 300 rpm
Procedure: The dissolution profile is described by the zero-order model, the first-order model, the Weibull model, the Higuchi model, the Hixson-Crowell model, the Korsmeyer-Peppas model, the Baker-Lonsdale model, the Hopfenberg model, and the like. The Weibull model is represented by the following formula: […]
The particle size distribution was measured in a dry manner using a spray particle size distribution analyzer AEROTRAC LDSA-SPR3500A manufactured by Microtrac Inc. The particle size distribution in Examples 2 and 7 was measured in a dry manner using a laser diffraction particle size distribution measurement MASTERSIZER 3000 manufactured by Malvern Panalytical Ltd. SEM images were measured using a scanning electron microscope JSM-IT100 manufactured by JEOL Ltd. Light microscope images were measured using an upright microscope BX53M manufactured by Olympus Corporation and a microscope digital camera DP74 manufactured by Olympus Corporation. […] The powder X-ray diffraction (XRD) was measured using a desktop X-ray diffraction device MiniFlex300 manufactured by Rigaku Corporation. The specific surface area was measured by the BET fluid process (gas used: pure nitrogen) using a fully automatic specific surface area measuring device Macsorb HM-1208 manufactured by Mountech Co., Ltd. The moisture content was measured using a trace moisture measuring device AQ-2200 manufactured by […] […]

[6] = calculated from d10, d50, d90, trihydrate
[7] = dry particle size distribution, volume based, trihydrate

Compound | sphericity of the spherulite [1] | Particle strength ([2]; trihydrate) [MPa] | d50 of the crystal thus obtained [3] | sharpness index of the crystal thus obtained [3] | Specific surface area [4] [m^2/g] | dissolution compared with the non-spherulite [5] | sharpness index of the crystal thus obtained [3, 6] | d50 of the crystal thus obtained [3, 7] [μm] | d50 ([3]; trihydrate) [μm] | sphericity of the non-spherulite ([1]; non-spherulite crystals) | Particle strength [2] [MPa]
COc1ccc2[n-]c([S@@+]([O-])Cc3ncc(C)c(OC)c3C)nc2c1.COc1ccc2[n-]c([S@@+]([O-])Cc3ncc(C)c(OC)c3C)nc2c1.O.O.O.[Mg+2] [Example 6, esomeprazole magnesium trihydrate] | 0.96±0.01 | 2.9 ± 0.5 | 91.5 | 1.45 | – | – | – | – | – | – | –
COc1ccc2[n-]c([S@@+]([O-])Cc3ncc(C)c(OC)c3C)nc2c1.COc1ccc2[n-]c([S@@+]([O-])Cc3ncc(C)c(OC)c3C)nc2c1.O.O.O.[Mg+2] [Example 8(1), esomeprazole magnesium trihydrate] | 0.95±0.03 | – | – | – | 22.6 | more rapid dissolution | 2.2 | 33.0 | 33.0 | – | –
COc1ccc2[n-]c([S@@+]([O-])Cc3ncc(C)c(OC)c3C)nc2c1.COc1ccc2[n-]c([S@@+]([O-])Cc3ncc(C)c(OC)c3C)nc2c1.O.O.O.[Mg+2] [Ground product of non-spherulite, esomeprazole magnesium trihydrate] | – | – | – | – | 44.0 | – | – | – | 5.1 | 0.45±0.23 | –
COc1ccc2[n-]c([S@@+]([O-])Cc3ncc(C)c(OC)c3C)nc2c1.COc1ccc2[n-]c([S@@+]([O-])Cc3ncc(C)c(OC)c3C)nc2c1.O.O.O.[Mg+2] [Example 5, esomeprazole magnesium trihydrate] | 0.89±0.05 | – | – | – | – | – | 1.4 | 149.9 | – | – | 2.3 ± 0.4
